Assay results taken from patent US8722376B2, “Firefly luciferase” (Olympus Corporation, priority 2011, dated 2014).

Target: T1, GL3 (luciferase derived from a known firefly) (Photinus pyralis, UniProt P08659, K549A/L550V/N119G/N50D/S548I)
T1 construct: measured as purified protein in a similar manner to SP1
Assay: Km of GL3 luciferase (luminescence kinetic analysis)
Type: biochemical
Details: read-out: Km for ATP; 0.1 M Tris-HCl (pH 8.0), D-luciferin, MgSO4; measured in a similar manner

T1 sequence (P08659 whole entry N50D/N119G/S548I/K549A/L550V): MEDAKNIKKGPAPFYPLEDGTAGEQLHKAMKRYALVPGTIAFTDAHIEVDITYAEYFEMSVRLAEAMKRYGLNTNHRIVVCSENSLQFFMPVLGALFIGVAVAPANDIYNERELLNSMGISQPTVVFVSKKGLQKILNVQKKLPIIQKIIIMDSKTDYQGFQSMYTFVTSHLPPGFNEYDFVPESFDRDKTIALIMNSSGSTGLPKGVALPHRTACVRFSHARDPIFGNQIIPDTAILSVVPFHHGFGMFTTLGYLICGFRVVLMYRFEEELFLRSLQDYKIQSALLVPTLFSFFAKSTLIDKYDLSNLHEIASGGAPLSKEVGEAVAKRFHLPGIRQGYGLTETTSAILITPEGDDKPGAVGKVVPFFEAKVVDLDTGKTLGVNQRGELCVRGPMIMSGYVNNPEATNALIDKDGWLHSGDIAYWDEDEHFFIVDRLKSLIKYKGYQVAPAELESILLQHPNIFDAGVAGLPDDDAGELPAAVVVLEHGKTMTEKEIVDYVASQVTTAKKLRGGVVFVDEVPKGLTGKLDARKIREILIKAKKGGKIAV

Nc1ncnc2c1ncn2[C@@H]1O[C@H](COP(=O)(O)OP(=O)(O)OP(=O)(O)O)[C@@H](O)[C@H]1O [ATP]
Km: 71.3 µM
